Reference: PubChem BioAssay (NCI)
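Interpolation was linear, between the two tested concentrations surrounding the appropriate level; five concentrations were tested over 48 hours in 96-well plates. GI50: concentration for 50% inhibition of growth. At the TGI there is no net growth.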

Key:
Experiment in all cases: NCI anticancer screen, dose series, 48 h
HCC-2998 colon = tested on: HCC-2998 colon
SK-MEL-28 melanoma = tested on: SK-MEL-28 melanoma
OVCAR-3 ovarian = tested on: OVCAR-3 ovarian
A498 renal = tested on: A498 renal
OVCAR-5 ovarian = tested on: OVCAR-5 ovarian
A549 NSCLC = tested on: A549 NSCLC
SF-295 CNS = tested on: SF-295 CNS
MALME-3M melanoma = tested on: MALME-3M melanoma
MOLT-4 leukemia = tested on: MOLT-4 leukemia
M14 melanoma = tested on: M14 melanoma

CCOC1CC(=O)c2c(Br)sc(Br)c21 (stereo unspecified)
TGI (HCC-2998 colon): 36.9 µM | TGI (SK-MEL-28 melanoma): 39.5 µM | TGI (OVCAR-3 ovarian): 28.5 µM | TGI (A498 renal): 83.3 µM | TGI (OVCAR-5 ovarian): 45.3 µM | TGI (A549 NSCLC): 95.1 µM | TGI (SF-295 CNS): 77.4 µM | TGI (MALME-3M melanoma): 40.8 µM | TGI (MOLT-4 leukemia): 35.1 µM | TGI (M14 melanoma): 36.2 µM

CN(C)c1nc(=NCc2ccncc2)ss1
TGI (HCC-2998 colon): > 100 µM | TGI (SK-MEL-28 melanoma): > 93.9 µM | TGI (OVCAR-3 ovarian): > 82.3 µM | TGI (A498 renal): > 100 µM | TGI (OVCAR-5 ovarian): 54.4 µM | GI50 (A549 NSCLC): > 100 µM | TGI (A549 NSCLC): > 100 µM | TGI (SF-295 CNS): > 100 µM | TGI (MALME-3M melanoma): > 31.6 µM | TGI (MOLT-4 leukemia): 51.1 µM | TGI (M14 melanoma): 36.1 µM

COc1ccc(CC(CO)NC(=O)OCc2ccccc2)cc1Oc1ccc(CC(CO)NC(=O)OCc2ccccc2)cc1 (stereo unspecified)
TGI (HCC-2998 colon): 93.6 µM | TGI (SK-MEL-28 melanoma): 54.9 µM | TGI (OVCAR-3 ovarian): 27.4 µM | TGI (A498 renal): 34.9 µM | TGI (OVCAR-5 ovarian): 30.9 µM | TGI (A549 NSCLC): 27.2 µM | TGI (SF-295 CNS): 24.6 µM | TGI (MALME-3M melanoma): 31.4 µM | TGI (MOLT-4 leukemia): 34.5 µM | TGI (M14 melanoma): 23.3 µM

COc1ccc2c(c1)O/C(=C\c1cccc(OCC(=O)Nc3nc4c(s3)CCCC4)c1)C2=O
GI50 (HCC-2998 colon): > 100 µM | TGI (HCC-2998 colon): > 100 µM | GI50 (SK-MEL-28 melanoma): > 100 µM | TGI (SK-MEL-28 melanoma): > 100 µM | GI50 (OVCAR-3 ovarian): 2.98 µM | TGI (OVCAR-3 ovarian): 7.63 µM | GI50 (A498 renal): > 42.5 µM | TGI (A498 renal): > 100 µM | GI50 (OVCAR-5 ovarian): > 40.6 µM | TGI (OVCAR-5 ovarian): > 78.8 µM | GI50 (A549 NSCLC): 29 µM | TGI (A549 NSCLC): > 100 µM | TGI (SF-295 CNS): > 43.2 µM | GI50 (MALME-3M melanoma): 2.39 µM | TGI (MALME-3M melanoma): 5.34 µM | GI50 (MOLT-4 leukemia): 4.5 µM | TGI (MOLT-4 leukemia): 98.7 µM | GI50 (M14 melanoma): > 100 µM | TGI (M14 melanoma): > 100 µM

CC(CC(C#N)(c1ccccc1)c1ccccc1)N1CCCCC1 (stereo unspecified)
TGI (HCC-2998 colon): 29.1 µM | TGI (SK-MEL-28 melanoma): 67 µM | TGI (OVCAR-3 ovarian): 44.5 µM | TGI (A498 renal): 85.1 µM | TGI (OVCAR-5 ovarian): > 100 µM | TGI (A549 NSCLC): > 100 µM | TGI (SF-295 CNS): 65.8 µM | TGI (MALME-3M melanoma): 35.6 µM | TGI (MOLT-4 leukemia): 49.3 µM | TGI (M14 melanoma): 39.1 µM

CCCCOC(C)(C)/C=C/C(O)[C@](C)(O)[C@H]1[C@H](O)C[C@@]2(C)[C@@H]3CCc4c(cc(OC5OC(CO)C(O)C(O)C5O)c(O)c4C)C3(C)C(=O)C[C@]12C (stereo partly specified)
TGI (HCC-2998 colon): > 100 µM | TGI (SK-MEL-28 melanoma): > 100 µM | TGI (OVCAR-3 ovarian): > 100 µM | TGI (A498 renal): > 100 µM | TGI (OVCAR-5 ovarian): > 100 µM | TGI (A549 NSCLC): > 100 µM | TGI (SF-295 CNS): > 100 µM | TGI (MALME-3M melanoma): > 100 µM | TGI (MOLT-4 leukemia): > 100 µM | TGI (M14 melanoma): > 100 µM

COc1ccccc1NC(=O)CC(=O)N1N=C(C)C(N=Nc2ccc(S(N)(=O)=O)cc2)C1=O (stereo unspecified)
TGI (HCC-2998 colon): > 100 µM | TGI (SK-MEL-28 melanoma): > 100 µM | TGI (OVCAR-3 ovarian): > 100 µM | TGI (A498 renal): > 100 µM | TGI (OVCAR-5 ovarian): > 100 µM | TGI (A549 NSCLC): > 100 µM | TGI (SF-295 CNS): > 100 µM | TGI (MALME-3M melanoma): > 100 µM | TGI (MOLT-4 leukemia): > 100 µM | TGI (M14 melanoma): > 100 µM

O=C1/C(=C/c2ccccc2S)N=C(c2ccccc2)N1c1nc2ccc(Sc3ccccc3)cc2[nH]1
TGI (HCC-2998 colon): 37.6 µM | TGI (SK-MEL-28 melanoma): > 100 µM | TGI (OVCAR-3 ovarian): 57.2 µM | TGI (A498 renal): > 100 µM | TGI (OVCAR-5 ovarian): > 100 µM | TGI (A549 NSCLC): > 100 µM | TGI (SF-295 CNS): 72.5 µM | TGI (MALME-3M melanoma): > 100 µM | TGI (MOLT-4 leukemia): > 100 µM | TGI (M14 melanoma): 49 µM

COc1cc2c(cc1OCCCCOc1cc(-c3ccc(F)cc3)nc(C)n1)N=C[C@@H]1CCCN1C2=O
TGI (HCC-2998 colon): 0.689 µM | TGI (SK-MEL-28 melanoma): 2.81 µM | TGI (OVCAR-3 ovarian): 2.66 µM | TGI (A498 renal): 4.6 µM | TGI (OVCAR-5 ovarian): 10.9 µM | TGI (A549 NSCLC): 10.8 µM | TGI (SF-295 CNS): 2.26 µM | TGI (MALME-3M melanoma): 1.82 µM | TGI (MOLT-4 leukemia): 0.279 µM | TGI (M14 melanoma): 1.87 µM

N#Cc1c(-c2ccccc2)/c(=C\Nc2ccc(Cl)cc2)c(=O)n2c1nc1ccccc12
TGI (HCC-2998 colon): > 100 µM | TGI (SK-MEL-28 melanoma): > 100 µM | TGI (OVCAR-3 ovarian): > 100 µM | TGI (A498 renal): > 100 µM | TGI (OVCAR-5 ovarian): > 100 µM | TGI (A549 NSCLC): > 100 µM | TGI (SF-295 CNS): > 100 µM | TGI (MALME-3M melanoma): > 100 µM | TGI (M14 melanoma): > 100 µM

Cc1ccccc1OC(C)C(=O)NN1C(=O)CC(=O)N(c2ccc(Cl)cc2)C1=S (stereo unspecified)
TGI (HCC-2998 colon): 71.9 µM | TGI (SK-MEL-28 melanoma): > 100 µM | TGI (OVCAR-3 ovarian): > 100 µM | TGI (A498 renal): 64.6 µM | TGI (OVCAR-5 ovarian): > 100 µM | TGI (A549 NSCLC): > 100 µM | TGI (SF-295 CNS): > 100 µM | TGI (MALME-3M melanoma): > 100 µM | TGI (MOLT-4 leukemia): > 100 µM | TGI (M14 melanoma): > 100 µM

O=C1C(c2c(O)[nH]c3ccc(S(=O)(=O)O)cc23)=Nc2ccccc21
TGI (HCC-2998 colon): > 100 µM | TGI (SK-MEL-28 melanoma): > 100 µM | TGI (OVCAR-3 ovarian): > 100 µM | TGI (A498 renal): > 100 µM | TGI (OVCAR-5 ovarian): > 100 µM | TGI (A549 NSCLC): > 100 µM | TGI (SF-295 CNS): > 100 µM | TGI (MALME-3M melanoma): > 100 µM | TGI (MOLT-4 leukemia): > 100 µM | TGI (M14 melanoma): > 100 µM

Nc1nn2c(C(Br)Br)cc(C(Br)Br)nc2c1[N+](=O)[O-]
TGI (HCC-2998 colon): 4.52 µM | TGI (SK-MEL-28 melanoma): 2.88 µM | TGI (A498 renal): 4.72 µM | TGI (OVCAR-5 ovarian): 3.12 µM | TGI (A549 NSCLC): 20.1 µM | TGI (SF-295 CNS): 4.46 µM | TGI (MALME-3M melanoma): 2.14 µM | TGI (MOLT-4 leukemia): 1.21 µM | TGI (M14 melanoma): 1.81 µM

c1ccc2c(c1)[nH]c1nc3cc(-c4ccc5nc6c(nc5c4)[nH]c4ccccc46)ccc3nc12
TGI (HCC-2998 colon): > 100 µM | TGI (SK-MEL-28 melanoma): > 100 µM | TGI (A498 renal): > 100 µM | TGI (OVCAR-5 ovarian): > 100 µM | TGI (A549 NSCLC): > 100 µM | TGI (SF-295 CNS): > 100 µM | TGI (MALME-3M melanoma): > 100 µM | TGI (MOLT-4 leukemia): > 100 µM | TGI (M14 melanoma): > 100 µM

CN(C)c1ccc(-c2c(C#N)c(S)n(NS(=O)(=O)c3ccccc3)c(=O)c2C#N)cc1
TGI (HCC-2998 colon): > 100 µM | TGI (SK-MEL-28 melanoma): > 100 µM | TGI (OVCAR-3 ovarian): > 100 µM | TGI (A498 renal): > 100 µM | TGI (OVCAR-5 ovarian): > 100 µM | TGI (A549 NSCLC): > 100 µM | TGI (SF-295 CNS): > 100 µM | TGI (MALME-3M melanoma): > 100 µM | TGI (MOLT-4 leukemia): > 100 µM | TGI (M14 melanoma): > 100 µM

Cc1cn2c(/C=C3/C(=O)Nc4cccc(Cl)c43)c(Cl)nc2s1
TGI (HCC-2998 colon): 76.5 µM | TGI (SK-MEL-28 melanoma): 36.5 µM | TGI (OVCAR-3 ovarian): > 100 µM | TGI (A498 renal): > 100 µM | TGI (OVCAR-5 ovarian): > 100 µM | TGI (A549 NSCLC): > 100 µM | TGI (SF-295 CNS): > 100 µM | TGI (MALME-3M melanoma): > 100 µM | TGI (MOLT-4 leukemia): > 100 µM | TGI (M14 melanoma): > 100 µM

CCNC(=O)Nc1ccccn1
TGI (HCC-2998 colon): > 100 µM | TGI (SK-MEL-28 melanoma): > 100 µM | TGI (OVCAR-3 ovarian): > 100 µM | TGI (A498 renal): > 100 µM | TGI (OVCAR-5 ovarian): > 100 µM | TGI (A549 NSCLC): > 100 µM | TGI (SF-295 CNS): > 100 µM | TGI (MALME-3M melanoma): > 100 µM | TGI (MOLT-4 leukemia): > 100 µM | TGI (M14 melanoma): > 100 µM

O=C(CN1CCCCC1)CC(O)(C(F)(F)F)C(F)(F)F
TGI (HCC-2998 colon): > 100 µM | TGI (SK-MEL-28 melanoma): > 100 µM | TGI (OVCAR-3 ovarian): > 100 µM | TGI (A498 renal): > 100 µM | TGI (OVCAR-5 ovarian): > 100 µM | TGI (A549 NSCLC): > 100 µM | TGI (SF-295 CNS): > 100 µM | TGI (MALME-3M melanoma): > 100 µM | TGI (M14 melanoma): > 100 µM

C=C(C)CCC(=O)[C@](C)(O)[C@H]1[C@H](O)C[C@@]2(C)[C@@H]3CCc4c(cc(OC5OC(CO)C(O)C(O)C5O)c(O)c4C)C3(C)C(=O)C[C@]12C (stereo partly specified)
TGI (HCC-2998 colon): > 100 µM | TGI (SK-MEL-28 melanoma): > 100 µM | TGI (OVCAR-3 ovarian): > 100 µM | TGI (A498 renal): > 100 µM | TGI (OVCAR-5 ovarian): > 100 µM | TGI (A549 NSCLC): > 100 µM | TGI (SF-295 CNS): > 100 µM | TGI (MALME-3M melanoma): > 100 µM | TGI (MOLT-4 leukemia): > 100 µM | TGI (M14 melanoma): > 100 µM

O=c1cc(/C=C/c2ccc(O)c(O)c2)oc(/C=C/c2ccc(O)c(O)c2)c1
TGI (HCC-2998 colon): 6.92 µM | TGI (SK-MEL-28 melanoma): 31.6 µM | TGI (OVCAR-3 ovarian): 10.8 µM | TGI (A498 renal): 14.4 µM | TGI (OVCAR-5 ovarian): 44.8 µM | TGI (A549 NSCLC): 37.1 µM | TGI (SF-295 CNS): 22.7 µM | TGI (MALME-3M melanoma): 19.1 µM | TGI (MOLT-4 leukemia): 19.9 µM | TGI (M14 melanoma): 16.5 µM
